Data: patent publication US6936585B2, “Corticotropin releasing factor 2 receptor agonists” (priority 2002, dated 2005)
Read-outs that look alike come from different tables or passages of the source. Ends that are not written are not given here. Peptide text beside a SMILES is read from it.

Tests used:
[1] = target: T1, CRF2R (Homo sapiens, UniProt Q13324); assay: CRF2R agonist activation (EC50 / Emax), called comparative CRF binding; type: cell-based; conditions: for EC50: read-out: CRF2R EC50
T1 sequence (Q13324 1-411): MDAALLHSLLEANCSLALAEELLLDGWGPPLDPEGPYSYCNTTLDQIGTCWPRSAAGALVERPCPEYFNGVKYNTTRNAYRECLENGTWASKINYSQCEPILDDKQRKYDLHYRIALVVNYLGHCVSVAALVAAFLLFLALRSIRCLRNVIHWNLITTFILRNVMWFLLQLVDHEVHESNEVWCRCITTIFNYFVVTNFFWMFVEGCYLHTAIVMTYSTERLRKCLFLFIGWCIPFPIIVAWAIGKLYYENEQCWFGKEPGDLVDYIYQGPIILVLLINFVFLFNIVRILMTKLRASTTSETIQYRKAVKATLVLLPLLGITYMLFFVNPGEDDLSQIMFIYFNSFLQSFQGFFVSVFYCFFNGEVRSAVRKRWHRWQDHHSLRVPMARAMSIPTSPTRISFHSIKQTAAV
How it was run: (§1)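 CRFR-expressing cells + peptide vs vehicle; read-out cAMP (lysate assay) or CRE-linked reporter expression (luciferase, CAT, fluorescent protein, alkaline phosphatase, etc.). Signal compared against vehicle-treated cells.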

[2] = target: T2, CRF1R (Homo sapiens, UniProt P34998); assay: CRF1R agonist activation (EC50 / Emax), called comparative CRF binding; type: cell-based; conditions: for EC50: read-out: CRF1R EC50
T2 sequence (P34998 24-415): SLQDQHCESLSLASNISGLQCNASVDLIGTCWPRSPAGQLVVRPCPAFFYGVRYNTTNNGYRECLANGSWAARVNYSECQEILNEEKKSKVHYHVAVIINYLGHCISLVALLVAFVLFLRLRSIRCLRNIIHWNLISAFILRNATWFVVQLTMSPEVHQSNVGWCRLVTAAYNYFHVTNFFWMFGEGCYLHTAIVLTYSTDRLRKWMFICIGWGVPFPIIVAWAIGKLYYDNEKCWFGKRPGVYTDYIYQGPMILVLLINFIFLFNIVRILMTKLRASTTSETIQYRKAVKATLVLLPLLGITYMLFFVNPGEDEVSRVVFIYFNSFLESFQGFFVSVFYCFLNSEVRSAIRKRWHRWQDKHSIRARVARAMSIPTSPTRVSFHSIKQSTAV
How it was run: as §1

## CC[C@H](C)[C@H](NC(=O)[C@H](C)NC(=O)[C@H](CC(N)=O)NC(=O)[C@H](CCC(N)=O)NC(=O)[C@H](CCC(=O)O)NC(=O)[C@H](C)NC(=O)[C@H](CCCNC(=N)N)NC(=O)[C@H](CCC(=O)O)NC(=O)[C@H](CCCNC(=N)N)NC(=O)[C@H](CCC(N)=O)NC(=O)[C@H](CO)NC(=O)[C@H](CCC(N)=O)NC(=O)[C@@H](NC(=O)[C@H](CCCCN)NC(=O)[C@H](CCC(=O)O)NC(=O)[C@H](CC(C)C)NC(=O)[C@H](CCC(=O)O)NC(=O)[C@H](CC(C)C)NC(=O)[C@H](CC(C)C)NC(=O)[C@@H](NC(=O)[C@H](CCCNC(=N)N)NC(=O)[C@H](CC(C)C)NC(=O)[C@H](CC(C)C)NC(=O)[C@H](Cc1ccccc1)NC(=O)[C@H](CC(C)C)NC(=O)[C@@H]1CCCN1C(=O)[C@H](CC(C)C)NC(=O)[C@H](CC(=O)O)NC(=O)[C@@H](NC(=O)[C@H](CO)NC(=O)[C@H](CC(C)C)NC(=O)[C@H](CO)NC(=O)[C@@H]1CCCN1C(=O)[C@H](CC(N)=O)NC(=O)[C@@H](N)CC(=O)O)[C@@H](C)CC)[C@@H](C)O)[C@@H](C)O)C(=O)N[C@H](C(=O)N[C@@H](Cc1ccccc1)C(=O)N[C@@H](C)C(=O)N[C@@H](CO)C(=O)N[C@H](C(N)=O)C(C)C)[C@@H](C)CC [compound 343] (H-DNPSLSIDLPLFLLRTLLELEKTQSQRERAEQNAIIFASV-NH2; N-terminus assumed)
[1]; read-out: CRF2R Emax
  Emax: 96.5%
[2]; read-out: CRF1R Emax
  Emax: 62.5%

## CC[C@H](C)[C@H](N)C(=O)N[C@H](C(=O)N[C@@H](CC(C)C)C(=O)N[C@@H](CO)C(=O)N[C@@H](CC(C)C)C(=O)N[C@@H](CC(=O)O)C(=O)N[C@H](C(=O)N1CCC[C@H]1C(=O)N[C@H](C(=O)NCC(=O)N[C@@H](CC(C)C)C(=O)N[C@@H](CC(C)C)C(=O)N[C@@H](CCC(N)=O)C(=O)N[C@H](C(=O)N[C@@H](CC(C)C)C(=O)N[C@@H](CC(C)C)C(=O)N[C@@H](CCC(=O)O)C(=O)N[C@@H](CCC(N)=O)C(=O)N[C@H](C(=O)N[C@@H](CCCNC(=N)N)C(=O)N[C@@H](C)C(=O)N[C@@H](CC(=O)O)C(=O)N[C@@H](C)C(=O)N[C@@H](C)C(=O)N[C@@H](CCCNC(=N)N)C(=O)N[C@@H](CCC(=O)O)C(=O)N[C@@H](CCC(N)=O)C(=O)N[C@@H](C)C(=O)N[C@H](C(=O)N[C@H](C(=O)N[C@@H](CC(N)=O)C(=O)N[C@@H](C)C(=O)N[C@@H](CCCNC(=N)N)C(=O)N[C@H](C(=O)N[C@@H](CC(C)C)C(=O)N[C@@H](C)C(=O)N[C@@H](CCCNC(=N)N)C(=O)N[C@H](C(N)=O)C(C)C)[C@@H](C)CC)[C@@H](C)O)[C@@H](C)O)[C@@H](C)O)[C@@H](C)CC)[C@@H](C)CC)C(C)C)C(C)C [compound 126] (H-IVLSLDVPIGLLQILLEQTRADAAREQATTNARILARV-NH2; N-terminus assumed)
[1]
  EC50: 13 nM
[1]; read-out: CRF2R Emax
  Emax: 91%
[2]
  EC50: > 100 nM
[2]; read-out: CRF1R Emax
  Emax: 7%

## CC[C@H](C)[C@H](N)C(=O)N[C@H](C(=O)N[C@@H](CC(C)C)C(=O)N[C@@H](CO)C(=O)N[C@@H](CC(C)C)C(=O)N[C@@H](CC(=O)O)C(=O)N[C@H](C(=O)N1CCC[C@H]1C(=O)N[C@H](C(=O)NCC(=O)N[C@@H](CC(C)C)C(=O)N[C@@H](CC(C)C)C(=O)N[C@@H](CCC(N)=O)C(=O)N[C@H](C(=O)N[C@@H](CC(C)C)C(=O)N[C@@H](CC(C)C)C(=O)N[C@@H](CCC(=O)O)C(=O)N[C@@H](CCC(N)=O)C(=O)N[C@@H](C)C(=O)N[C@@H](CCCCN)C(=O)N[C@@H](CCC(N)=O)C(=O)N[C@@H](CCCNC(=N)N)C(=O)N[C@@H](C)C(=O)N[C@@H](C)C(=O)N[C@@H](CCCNC(=N)N)C(=O)N[C@@H](CCC(=O)O)C(=O)N[C@@H](CCC(N)=O)C(=O)N[C@@H](C)C(=O)N[C@H](C(=O)N[C@H](C(=O)N[C@@H](CC(N)=O)C(=O)N[C@@H](C)C(=O)N[C@@H](CCCNC(=N)N)C(=O)N[C@H](C(=O)N[C@@H](CC(C)C)C(=O)N[C@@H](C)C(=O)N[C@@H](CCCNC(=N)N)C(=O)N[C@H](C(N)=O)C(C)C)[C@@H](C)CC)[C@@H](C)O)[C@@H](C)O)[C@@H](C)CC)[C@@H](C)CC)C(C)C)C(C)C [compound 110] (H-IVLSLDVPIGLLQILLEQAKQRAAREQATTNARILARV-NH2; N-terminus assumed)
[1]
  EC50: 11 nM
[1]; read-out: CRF2R Emax
  Emax: 100%
[2]
  EC50: > 100 nM
[2]; read-out: CRF1R Emax
  Emax: 9%

## CC[C@H](C)[C@H](NC(=O)[C@H](C)NC(=O)[C@H](CC(N)=O)NC(=O)[C@H](CCC(N)=O)NC(=O)[C@H](CCC(=O)O)NC(=O)[C@H](C)NC(=O)[C@H](CCCNC(=N)N)NC(=O)[C@H](CCC(=O)O)NC(=O)[C@H](CCCNC(=N)N)NC(=O)[C@H](CCC(N)=O)NC(=O)[C@H](CO)NC(=O)[C@H](CCC(N)=O)NC(=O)[C@@H](NC(=O)[C@H](CCCNC(=N)N)NC(=O)[C@H](C)NC(=O)[C@H](CC(C)C)NC(=O)[C@H](CCC(=O)O)NC(=O)[C@H](CC(C)C)NC(=O)[C@H](CC(C)C)NC(=O)[C@@H](NC(=O)[C@H](CCCNC(=N)N)NC(=O)[C@H](CC(C)C)NC(=O)[C@H](CC(C)C)NC(=O)[C@H](Cc1c[nH]cn1)NC(=O)[C@H](Cc1ccccc1)NC(=O)[C@@H]1CCCN1C(=O)[C@H](CC(C)C)NC(=O)[C@H](CC(=O)O)NC(=O)[C@@H](NC(=O)[C@H](CO)NC(=O)[C@H](CC(C)C)NC(=O)[C@H](CO)NC(=O)[C@@H]1CCCN1C(=O)[C@H](CC(N)=O)NC(=O)[C@@H](N)CC(=O)O)[C@@H](C)CC)[C@@H](C)O)[C@@H](C)O)C(=O)N[C@H](C(=O)N[C@@H](Cc1ccccc1)C(=O)N[C@@H](C)C(=O)N[C@@H](CO)C(=O)N[C@H](C(N)=O)C(C)C)[C@@H](C)CC [compound 185] (H-DNPSLSIDLPFHLLRTLLELARTQSQRERAEQNAIIFASV-NH2; N-terminus assumed)
[1]
  EC50: 8.98 nM
[1]; read-out: CRF2R Emax
  Emax: 100%
[2]
  EC50: 358 nM
[2]; read-out: CRF1R Emax
  Emax: 95.8%

## SQEPPISLDLPLHLLREVLEMTKADQLAQQAHSNRKLLDIA-NH2 [compound 102]
[1]; read-out: CRF2R Emax
  Emax: 13.5%
[2]; read-out: CRF1R Emax
  Emax: 7.8%

## NDDPPISIDLPLQLLRNMIEMARIENEREQAGLNAKYLAEV-NH2 [compound 270]
[1]; read-out: CRF2R Emax
  Emax: 19.3%
[2]; read-out: CRF1R Emax
  Emax: 7.85%

## CC[C@H](C)[C@H](NC(=O)[C@H](CO)NC(=O)[C@H](CC(C)C)NC(=O)[C@H](CO)NC(=O)[C@@H]1CCCN1C(=O)[C@H](CC(N)=O)NC(=O)[C@@H](N)CC(=O)O)C(=O)N[C@@H](CC(=O)O)C(=O)N[C@@H](CC(C)C)C(=O)N[C@H](C(=O)N[C@@H](Cc1ccccc1)C(=O)N[C@@H](Cc1c[nH]cn1)C(=O)N[C@@H](CC(C)C)C(=O)N[C@@H](CC(C)C)C(=O)N[C@@H](CCCNC(=N)N)C(=O)N[C@H](C(=O)N[C@@H](CC(C)C)C(=O)N[C@@H](CC(C)C)C(=O)N[C@@H](CCC(=O)O)C(=O)N[C@@H](CC(C)C)C(=O)N[C@@H](C)C(=O)N[C@@H](CCCNC(=N)N)C(=O)N[C@H](C(=O)N[C@@H](CCC(N)=O)C(=O)N[C@@H](CO)C(=O)N[C@@H](CCC(N)=O)C(=O)N[C@@H](CCCNC(=N)N)C(=O)N[C@@H](CCC(=O)O)C(=O)N[C@@H](CCCNC(=N)N)C(=O)N[C@@H](C)C(=O)N[C@@H](CCC(=O)O)C(=O)N[C@@H](CCC(N)=O)C(=O)N[C@@H](CC(N)=O)C(=O)N[C@@H](CCCNC(=N)N)C(=O)N[C@H](C(=O)N[C@H](C(=O)N[C@@H](Cc1ccccc1)C(=O)N[C@@H](CC(=O)O)C(=O)N[C@@H](CO)C(=O)N[C@H](C(N)=O)C(C)C)[C@@H](C)CC)[C@@H](C)CC)[C@@H](C)O)[C@@H](C)O)[C@@H](C)O [hUcnI, human urocortin I, reference compound] (H-DNPSLSIDLTFHLLRTLLELARTQSQRERAEQNRIIFDSV-NH2)
[1]; read-out: CRF2R (Emax %), Emax
  Emax: 100%
[2]; read-out: CRF1R (Emax %), Emax
  Emax: 100%

## CC[C@H](C)[C@H](N)C(=O)N[C@H](C(=O)N[C@@H](CC(C)C)C(=O)N[C@@H](CO)C(=O)N[C@@H](CC(C)C)C(=O)N[C@@H](CC(=O)O)C(=O)N[C@H](C(=O)N1CCC[C@H]1C(=O)N[C@H](C(=O)NCC(=O)N[C@@H](CC(C)C)C(=O)N[C@@H](CC(C)C)C(=O)N[C@@H](CCC(N)=O)C(=O)N[C@H](C(=O)N[C@@H](CC(C)C)C(=O)N[C@@H](CC(C)C)C(=O)N[C@@H](CCC(=O)O)C(=O)N[C@@H](CCC(N)=O)C(=O)N[C@@H](CCCNC(=N)N)C(=O)N[C@@H](C)C(=O)N[C@@H](C)C(=O)N[C@@H](CCCNC(=N)N)C(=O)N[C@@H](CCC(=O)O)C(=O)N[C@@H](CCC(N)=O)C(=O)N[C@@H](C)C(=O)N[C@H](C(=O)N[C@H](C(=O)N[C@@H](CC(N)=O)C(=O)N[C@@H](C)C(=O)N[C@@H](CCCNC(=N)N)C(=O)N[C@H](C(=O)N[C@@H](CC(C)C)C(=O)N[C@@H](C)C(=O)N[C@@H](CCCNC(=N)N)C(=O)N[C@H](C(N)=O)C(C)C)[C@@H](C)CC)[C@@H](C)O)[C@@H](C)O)[C@@H](C)CC)[C@@H](C)CC)C(C)C)C(C)C [compound 136] (H-IVLSLDVPIGLLQILLEQRAAREQATTNARILARV-NH2; N-terminus assumed)
[1]
  EC50: 23.4 nM
[1]; read-out: CRF2R Emax
  Emax: 68%
[2]
  EC50: > 100 nM
[2]; read-out: CRF1R Emax
  Emax: 8%

## NDDPPISIDLPFYLLRNMIEMARIENEREQAGLNAKYLAEV-NH2 [compound 261]
[1]; read-out: CRF2R Emax
  Emax: 95.3%
[2]; read-out: CRF1R Emax
  Emax: 100%
